Consider 35 molecules from US20250206724A1, “SUBSTITUTED 3-AMINO INDAZOLE DERIVATIVES AS KINASE INHIBITORS” (NERVIANO MEDICAL SCIENCES S.R.L., priority 2022, published 2025).

Structures are written as SMILES. Counter-ions that a name gives are not always drawn.

The assay has as its target T1, CDK11A (Homo sapiens, UniProt Q9UQ88).
T1 sequence (Q9UQ88 346-783): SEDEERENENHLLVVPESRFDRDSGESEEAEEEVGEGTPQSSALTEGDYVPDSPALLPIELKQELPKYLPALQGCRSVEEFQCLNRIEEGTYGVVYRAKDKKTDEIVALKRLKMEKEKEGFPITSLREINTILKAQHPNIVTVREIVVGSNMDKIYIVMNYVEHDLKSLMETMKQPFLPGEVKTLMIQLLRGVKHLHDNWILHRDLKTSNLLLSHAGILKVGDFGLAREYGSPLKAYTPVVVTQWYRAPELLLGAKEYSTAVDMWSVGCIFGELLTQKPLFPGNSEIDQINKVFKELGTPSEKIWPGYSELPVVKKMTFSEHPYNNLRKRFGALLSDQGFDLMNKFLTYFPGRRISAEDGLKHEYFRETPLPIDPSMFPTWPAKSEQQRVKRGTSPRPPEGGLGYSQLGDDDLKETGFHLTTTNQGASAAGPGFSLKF
Conditions: displacement of SNS-032-Atto590 probe (0.002 μM) from CDK11A-p58 (0.032 uM), fluorescence polarization.
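Further: compound preincubated 30 min with CDK11A-p58, then probe added and polarization (mP) read 15 min later, 0% displacement is probe plus enzyme, 100% is probe alone.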

As for `CCCCN1CCC(C(=O)Nc2n[nH]c3ccc(-c4c(F)cccc4Cl)cc23)CC1` [cpd 65, 1-Butyl-N-[5-(2-chloro-6-fluorophenyl)-1H-indazol-3-yl]piperidine-4-carboxamide hydrochloride], the DC50 was 110 nM. `NCCCN1CCC(C(=O)Nc2n[nH]c3ccc(-c4c(F)cccc4Cl)cc23)CC1` [cpd 66, 1-(3-Aminopropyl)-N-[5-(2-chloro-6-fluorophenyl)-1H-indazol-3-yl]piperidine-4-carboxamide dihydrochloride] showed a DC50 of 58 nM. Regarding `COCC(C)N1CCC(C(=O)Nc2n[nH]c3ccc(-c4c(F)cccc4Cl)cc23)CC1` (centres unmarked) [cpd 67, N-[5-(2-Chloro-6-fluorophenyl)-1H-indazol-3-yl]-1-(1-methoxypropan-2-yl)piperidine-4-carboxamide hydrochloride], the DC50 was found to be 151 nM. `CN1CCC(C(=O)Nc2n[nH]c3ccc(-c4c(Cl)cccc4Cl)cc23)CC1` [cpd 68, N-[5-(2,6-Dichlorophenyl)-1H-indazol-3-yl]-1-methylpiperidine-4-carboxamide] had a DC50 of 85 nM.

As to `CCCCN1CCC(C(=O)Nc2n[nH]c3ccc(-c4c(Cl)cccc4Cl)cc23)CC1` [cpd 69, 1-Butyl-N-[5-(2,6-dichlorophenyl)-1H-indazol-3-yl]piperidine-4-carboxamide], the DC50 was determined as 122 nM. For the molecule `CC(C)CN1CCC(C(=O)Nc2n[nH]c3ccc(-c4c(Cl)cccc4Cl)cc23)CC1` [cpd 70, N-[5-(2,6-Dichlorophenyl)-1H-indazol-3-yl]-1-(2-methylpropyl)piperidine-4-carboxamide], the DC50 is 136 nM. Molecule `CC(C)(CO)CN1CCC(C(=O)Nc2n[nH]c3ccc(-c4c(Cl)cccc4Cl)cc23)CC1` [cpd 71, N-[5-(2,6-Dichlorophenyl)-1H-indazol-3-yl]-1-(3-hydroxy-2,2-dimethylpropyl)piperidine-4-carboxamide] registered a DC50 of 135 nM. Consider `Cc1ccc(Cl)c(-c2ccc3[nH]nc(NC(=O)C4CCN(C)CC4)c3c2)c1F` [cpd 72, N-[5-(6-Chloro-2-fluoro-3-methylphenyl)-1H-indazol-3-yl]-1-methylpiperidine-4-carboxamide hydrochloride], for which the DC50 came to 166 nM. In the case of `Cc1ccc(F)c(-c2ccc3[nH]nc(NC(=O)C4CCN(C)CC4)c3c2)c1Cl` [cpd 73, N-[5-(2-Chloro-6-fluoro-3-methylphenyl)-1H-indazol-3-yl]-1-methylpiperidine-4-carboxamide hydrochloride], the DC50 worked out at 476 nM. In turn, `CN1CCC(C(=O)Nc2n[nH]c3ccc(-c4cc(CO)ccc4Cl)cc23)CC1` [cpd 77, N-{5-[2-Chloro-5-(hydroxymethyl)phenyl]-1H-indazol-3-yl}-1-methylpiperidine-4-carboxamide p-toluensulfonate] returned a DC50 of 446 nM.

The molecule `CN1CCC(C(=O)Nc2n[nH]c3ccc(-c4ccccc4F)cc23)CC1` [cpd 78, N-[5-(2-Fluorophenyl)-1H-indazol-3-yl]-1-methylpiperidine-4-carboxamide hydrochloride] returned a DC50 of 308 nM. `CN1CCC(C(=O)Nc2n[nH]c3ccc(-c4ccccc4C#N)cc23)CC1` [cpd 79, N-[5-(2-Cyanophenyl)-1H-indazol-3-yl]-1-methylpiperidine-4-carboxamide p-toluensulfonate] displayed a DC50 of 277 nM.

The molecule `CN1CCC(C(=O)Nc2n[nH]c3ccc(-c4cc(Cl)ccc4Cl)cc23)CC1` [cpd 80, N-[5-(2,5-Dichlorophenyl)-1H-indazol-3-yl]-1-methylpiperidine-4-carboxamide hydrochloride] registered a DC50 of 216 nM.

As for `CN1CCC(C(=O)Nc2n[nH]c3ccc(-c4ccccc4Cl)cc23)CC1` [cpd 85, N-[5-(2-Chlorophenyl)-1H-indazol-3-yl]-1-methylpiperidine-4-carboxamide hydrochloride], the DC50 came to 393 nM.

`Cc1ccc(Cl)c(-c2ccc3[nH]nc(NC(=O)C4CCN(C)CC4)c3c2)c1` [cpd 86, N-[5-(2-Chloro-5-methylphenyl)-1H-indazol-3-yl]-1-methylpiperidine-4-carboxamide hydrochloride]: the DC50 is 502 nM. `CN1CCC(C(=O)Nc2n[nH]c3ccc(-c4ccc(F)cc4)cc23)CC1` [cpd 87, N-[5-(4-Fluorophenyl)-1H-indazol-3-yl]-1-methylpiperidine-4-carboxamide hydrochloride]: the DC50 is 988 nM. As to `CCc1ccccc1-c1ccc2[nH]nc(NC(=O)C3CCN(C)CC3)c2c1` [cpd 88, N-[5-(2-Ethylphenyl)-1H-indazol-3-yl]-1-methylpiperidine-4-carboxamide hydrochloride], the DC50 is 822 nM. As to `CN1CCC(C(=O)Nc2n[nH]c3ccc(-c4cccc(C#N)c4)cc23)CC1` [cpd 89, N-[5-(3-Cyanophenyl)-1H-indazol-3-yl]-1-methylpiperidine-4-carboxamide hydrochloride], the DC50 turned out to be 784 nM. Molecule `CN1CCC(C(=O)Nc2n[nH]c3ccc(-c4ccc(N)cc4)cc23)CC1` [cpd 90, N-[5-(4-Aminophenyl)-1H-indazol-3-yl]-1-methylpiperidine-4-carboxamide dihydrochloride] yielded a DC50 of 592 nM.

Molecule `CN1CCC(C(=O)Nc2n[nH]c3ccc(-c4ccc(S(N)(=O)=O)cc4)cc23)CC1` [cpd 92, 1-Methyl-N-[5-(4-sulfamoylphenyl)-1H-indazol-3-yl]piperidine-4-carboxamide hydrochloride] returned a DC50 of 799 nM. `CN1CCC(C(=O)Nc2n[nH]c3ccc(-c4ccccc4)cc23)CC1` [cpd 93, 1-Methyl-N-(5-phenyl-1H-indazol-3-yl)piperidine-4-carboxamide hydrochloride] came in with a DC50 of 938 nM. As to `CN1CCC(C(=O)Nc2n[nH]c3ccc(-c4cc(C(F)(F)F)ccc4Cl)cc23)CC1` [cpd 94, N-{5-[2-Chloro-5-(trifluoromethyl)phenyl]-1H-indazol-3-yl}-1-methylpiperidine-4-carboxamide hydrochloride], the DC50 was determined as 592 nM. As to `CN1CCC(C(=O)Nc2n[nH]c3ccc(-c4cccc(Cl)c4Cl)cc23)CC1` [cpd 97, N-[5-(2,3-Dichlorophenyl)-1H-indazol-3-yl]-1-methylpiperidine-4-carboxamide hydrochloride], the DC50 was found to be 643 nM.

As for `CN1CCC(C(=O)Nc2n[nH]c3ccc(-c4cccc(F)c4F)cc23)CC1` [cpd 99, N-[5-(2,3-Difluorophenyl)-1H-indazol-3-yl]-1-methylpiperidine-4-carboxamide hydrochloride], the DC50 was determined as 173 nM.

`CN1CCC(C(=O)Nc2n[nH]c3ccc(-c4cccc(F)c4)cc23)CC1` [cpd 101, N-[5-(3-Fluorophenyl)-1H-indazol-3-yl]-1-methylpiperidine-4-carboxamide hydrochloride] had a DC50 of 692 nM. `CN1CCC(C(=O)Nc2n[nH]c3ccc(-c4ccccc4C(F)(F)F)cc23)CC1` [cpd 104, 1-Methyl-N-{5-[2-(trifluoromethyl)phenyl]-1H-indazol-3-yl}piperidine-4-carboxamide hydrochloride] displayed a DC50 of 330 nM. Take `CN1CCC(C(=O)Nc2n[nH]c3ccc(-c4c(F)cccc4F)cc23)CC1` [cpd 105, N-[5-(2,6-Difluorophenyl)-1H-indazol-3-yl]-1-methylpiperidine-4-carboxamide hydrochloride]: the DC50 worked out at 364 nM. With `CN1CCC(C(=O)Nc2n[nH]c3ccc(-c4ccc(Cl)cc4Cl)cc23)CC1` [cpd 106, N-[5-(2,4-Dichlorophenyl)-1H-indazol-3-yl]-1-methylpiperidine-4-carboxamide hydrochloride] the figure was 259 nM; with `CN1CCC(C(=O)Nc2n[nH]c3ccc(-c4ccc(N)cc4Cl)cc23)CC1` [cpd 107, N-[5-(4-Amino-2-chlorophenyl)-1H-indazol-3-yl]-1-methylpiperidine-4-carboxamide dihydrochloride], 200 nM. Molecule `CN1CCC(C(=O)Nc2n[nH]c3ccc(-c4c(Cl)cc(Cl)cc4Cl)cc23)CC1` [cpd 108, 1-Methyl-N-[5-(2,4,6-trichlorophenyl)-1H-indazol-3-yl]piperidine-4-carboxamide hydrochloride] came in with a DC50 of 150 nM. With `CN1CCC(C(=O)Nc2n[nH]c3ccc(-c4ccc(C(N)=O)cc4)cc23)CC1` [cpd 109, N-[5-(4-Carbamoylphenyl)-1H-indazol-3-yl]-1-methylpiperidine-4-carboxamide hydrochloride] the figure was 967 nM; with `CN1CCC(C(=O)Nc2n[nH]c3ccc(-c4ccc(O)cc4Cl)cc23)CC1` [cpd 111, N-[5-(2-Chloro-4-hydroxyphenyl)-1H-indazol-3-yl]-1-methylpiperidine-4-carboxamide hydrochloride], 141 nM.

`Cc1cc(C#N)ccc1-c1ccc2[nH]nc(NC(=O)C3CCN(C)CC3)c2c1` [cpd 113, N-[5-(4-Cyano-2-methylphenyl)-1H-indazol-3-yl]-1-methylpiperidine-4-carboxamide hydrochloride] showed a DC50 of 534 nM. With `CN1CCC(C(=O)Nc2n[nH]c3ccc(-c4cc([N+](=O)[O-])ccc4F)cc23)CC1` [cpd 115, N-[5-(2-Fluoro-5-nitrophenyl)-1H-indazol-3-yl]-1-methylpiperidine-4-carboxamide hydrochloride], the DC50 is 165 nM. Turning to `CN1CCC(C(=O)Nc2n[nH]c3ccc(-c4cc(C#N)ccc4Cl)cc23)CC1` [cpd 116, N-[5-(2-Chloro-5-cyanophenyl)-1H-indazol-3-yl]-1-methylpiperidine-4-carboxamide trifluoroacetate], the DC50 was found to be 63 nM.
